Here are results for one compound from US20220002280A1, “COMPOUNDS AND METHODS OF USE” (Ferro Therapeutics, Inc., priority 2019, published 2022).

Several values for one entry are separate records, joined by “and”; a condition that tells them apart may be missing. Identical values can stand only once.

One experiment concerns A549. The experiment can be described thus: Counter-screen in A549 (CellTiter Glo). It is filed as cell-based, human. The conditions noted are these: A549 cells, 96 hours. On the procedure:
Selected compounds were also assayed (counter-screened) in a human lung cancer cell line, A549, a less sensitive cell line to GPX4 inhibitors, as a control to assess differential activity. Cells at a density of 800-2,000 cells/well were seeded in 96-well plates and incubated at 37° C. overnight. A series of nine different concentrations of compound stocks (500×) were created by 3-fold serial dilution in DMSO. These compounds were further diluted in culture media and then added to cells so that the final DMSO concentration was equal to 0.25% or less. After 96 hours of incubation, 50 μL of CellTiter Glo reagent (Promega) was added to each well and luminescence was measured after 10 minutes using EnVision (PerkinElmer). RSL3 (a prototype GPX4 inhibitor, also known as RSL-3) was used as a reference compound titrated from top concentration of up to 30 μM. All compounds were tested initially from 30 µM as the top concentration in duplicates (range of 4.6 nM-30 μM). […] Luminescence from cells treated with DMSO alone was set as Max and % of inhibition was calculated as follows: Inhibition %=(Max-Sample value)/Max*100. Data was analyzed using XL-fit software (ID Business Solutions Ltd.). IC50, relative IC50, or % of top inhibition was calculated.

Another experiment relates to KP4. The experiment can be described thus: Cell viability in KP4 (Table 4). The experiment is classed as cell-based. Particulars: KP4 cells.
The next experiment deals with T1, GPX4 (Homo sapiens, UniProt P36969).
T1 construct: endogenous in cells; host or cells: MiaPaCa-2
T1 sequence (P36969 1-197): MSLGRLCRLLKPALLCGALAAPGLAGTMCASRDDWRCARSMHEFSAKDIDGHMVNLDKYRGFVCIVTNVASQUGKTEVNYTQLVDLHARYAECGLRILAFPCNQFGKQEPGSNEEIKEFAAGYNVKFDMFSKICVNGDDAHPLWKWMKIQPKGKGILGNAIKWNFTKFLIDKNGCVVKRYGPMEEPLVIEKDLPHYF
The experiment can be described thus: Western blot gel mobility shift of GPX4. The experiment is classed as cell-based. Particulars: covalent irreversible vs reversible inhibitors. On the procedure: A mobility shift of GPX4 Western blot assay was established to assess target engagement directly in cell-based assay after incubation with compounds and in tumors from mice treated with compounds. Mobility shift can be used as a pharmacodynamic marker for GPX4 irreversible inhibitors. For cell-based assay, cells that are sensitive to GPX4 inhibitors (e.g. MiaPaCa-2) were seeded in 10 cm (2-8×10^6 cells) and grown overnight. Cell seeding number can be adjusted proportionally based on the surface area if smaller dishes are used. Next day, cells were treated with DMSO and various compounds at indicated concentrations for a period of time (e.g. 0.5, 1, 2, 4, 6, or up to 72 hours). Cells were then lysed in 0.3-0.5 mL of RIPA buffer (Sigma) supplemented with protease inhibitors (Roche) and phosphatase inhibitors (Sigma). Lysates were assayed for protein concentration using BCA kit (Pierce). Normalized amount of lysates ([…] protein/lane) were run on 4-12% or 12% NuPage gel (Life Technologies) and the proteins were transferred to the polyvinylidene fluoride (PVDF) or nitrocellulose membrane using iBlot® Transfer Stack (Life Technologies). The membranes were probed with primary antibodies shown in Table 6 at 4° C. overnight after blocking with 1×TBST containing 5% non-fat milk for one hour at room temperature. Similar antibodies from other vendors could also be used in Western blot analysis. After washing 5 times with 1×TBS containing 0.1% Tween20, the membranes were probed with a second application of antibody (e.g. Anti-mouse-HRP, Anti-rabbit-HRP, Anti-Goat-HRP, Anti-mouse IgG Dylight 800 conjugate or Anti-rabbit IgG DyLight 680 conjugate) (1:10000; Cell signaling or similar IR to the antibodies from different vendors) at room temperature for one hour. After washing 5 times, the membranes were scanned using ImageQuant-LAS-4010 (chemiluminiscence) (GE Healthcare) if HRP-conjugated secondary antibodies were used or Odyssey® Imaging System (Licor Biosciences) if infrared conjugated secondary antibodies were used.
In DMSO treated sample, GPX4 ran as doublet—the major lower free or unbound GPX4 band and the minor upper band (likely glutathione-bound GPX4 (Cozza et al., Free Radical Biology and Medicine, Vol 112, pages 1-11, 2017)). The amount of upper band can be reduced if samples were boiled in excess amount of reducing agent dithiothreitol (DTT). GPX4 in SDS-PAGE reducing gel moved slower (appear as a larger molecular weight protein) when treated with covalent, irreversible inhibitors of GPX4 (e.g. RSL-3 and ML162) but not reversible inhibitors (e.g. ML210), presumably due to addition of the covalently linked small molecule to GPX4. Unlike glutathione-bound GPX4, the irreversible inhibitor bound GPX4 upper band cannot be reduced by excess amount of DTT. […]
A general note: Immunoblotting shows a protein as a band on a membrane.

As for `COC(=O)c1ccc([C@@H]2c3[nH]c4ccccc4c3C[C@@H](C(=O)OC)N2C(=O)CCl)cc1` [RSL3, reference compound], the IC50 – broadly, the concentration at which inhibition is half-maximal – with A549 is 2.73 µM and 3.67 µM and 3.08 µM; in the experiment with KP4, 0.002 µM and 0.003 µM. Moreover, the “GPX4 mobility in SDS-PAGE reducing gel after treatment with inhibitor” value at GPX4 is listed as “moved slower”.
